Like-named read-outs stand apart in the source and are kept apart here.
Tests used:
[1] = plasma stability, mouse plasma; format: in vitro ADME; settings: Mouse plasma, 3 hrs
Text: (§1) Plasma stability is a measure of the stability of small molecules and peptides in plasma and is an important parameter, which can strongly influence the in vivo efficacy of a test compound. Drug candidates are exposed to enzymatic processes (proteinases. esterases) in plasma, and they can undergo intramolecular rearrangement or bind irreversibly (covalently) to proteins.

[2] = aqueous solubility (buffer pH 5.0-7.4, PBS); format: physicochemical
[3] = biological target: LMPTP-A (Low Molecular Weight Protein Tyrosine Phosphatase-A) enzyme (Homo sapiens (Human), UniProt P24666); experiment: LMPTP primary screening / LMPTP (OMFP) enzyme inhibition assay, fluorescence intensity; format: biochemical
LMPTP-A (Low Molecular Weight Protein Tyrosine Phosphatase-A) enzyme, sequence (P24666 whole entry): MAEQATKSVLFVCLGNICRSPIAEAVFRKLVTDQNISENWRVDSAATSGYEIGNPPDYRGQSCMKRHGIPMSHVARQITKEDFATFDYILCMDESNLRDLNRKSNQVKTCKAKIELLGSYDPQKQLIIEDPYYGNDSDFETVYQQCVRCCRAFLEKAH
In short: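 Single-concentration screen, test compounds 20 μM final, […]. Enzyme (0.625 nM) and OMFP (400 μM) react 50 min at room temp, dark, in Bis-Tris buffer pH 6.0 containing DTT 1 mM and Triton X-100 0.01%. Read-out: fluorescence intensity.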

[4] = hepatic microsomal stability, mouse liver microsomes; format: in vitro ADME; settings: Mouse microsomes, 1 hr
Text: (§2) In the course of this investigation many compounds with similar potencies in the LMPTP (OMFP) assay were found. In order to determine which compound would be the best candidate for in vivo studies, an abbreviated ADME panel was ran on these compounds, a tabulation of the most interesting data on this set of compounds is illustrated in Table 3 below. From the hepatic microsome stability data the candidate selected for in vivo studies was Compound D1.
(§3) The microsomal stability assay is commonly used to rank compounds according to their metabolic stability. This assay addresses the pharmacologic question of how long the parent compound will remain circulating in plasma within the body.

[5] = tested on: insulin receptor in HepG2 cells; settings: 10 microM compound overnight, insulin 5 min
[6] = plasma stability, human plasma; format: in vitro ADME; settings: Human plasma, 3 hrs
Text: as §1

[7] = hepatic microsomal stability, human liver microsomes; format: in vitro ADME; settings: Human microsomes, 1 hr
Text: as §2, §3

[8] = biological target: recombinant human LMPTP-A (Homo sapiens (Human), UniProt P24666); experiment: isothermal calorimetry (ITC) binding
recombinant human LMPTP-A, sequence (P24666 whole entry): as above
Experimental: ML400 analog G53 (Table A) binds to LMPTP. ITC was performed using recombinant human LMPTP-A and a derivative of Compound D1, G53. Kd=0.9 microM.

[9] = LMPTP-A, OMFP substrate, method of Example 2, read-out: IC50

Row | IC50 [3, 9] [µM] | Compound | other results
1 | – | c1ccc(-c2cc(NCCN3CCCCC3)c3ccccc3n2)cc1 [Entry 41] | Plasma Stability % Remaining @ 3 hrs [1]: 62.25%; Aqueous Solubility Pion's buffer ([2]; pH 5.0): 111.8 µg/mL; Aqueous Solubility Pion's buffer ([2]; pH 6.2): 95.7 µg/mL; Aqueous Solubility Pion's buffer ([2]; pH 7.4): 54.5 µg/mL; IC50 ([3]; Table 2 quinoline series, CP sample (cherry pick of DMSO solution from NIH MLSMR), read-out: LMPTP (OMFP) (IC50)): 3.49 µM; IC50 ([3]; Table 2 quinoline series, P sample (purchased from commercial sources), read-out: LMPTP (OMFP) (IC50)): 2.86 µM; IC50 ([3]; Table 2 quinoline series, S sample (synthesized de novo), read-out: LMPTP (OMFP) (IC50)): 3.7 µM; IC50 ([3]; initial screening hits (Scheme 4), read-out: IC50): 3.49 µM; IC50 ([3]; purchased compound, read-out: LMPTP (OMFP) IC50): 2.86 µM; IC50 ([3]; synthesized compound, read-out: LMPTP (OMFP) IC50): 3.7 µM; Hepatic Microsome Stability % Remaining @ 1 hr [4]: 0.38%; phosphorylation of the insulin receptor [5]: increases phosphorylation of the insulin receptor; Plasma Stability % Remaining @ 3 hrs [6]: 70.08%; Hepatic Microsome Stability % Remaining @ 1 hr [7]: 26.54%
2 | 0.801 to 5 | COc1ccc(-c2cc(Nc3cccc(CC4CCNCC4)c3)c3ccccc3n2)cc1 [Compound G53, [2-(4-methoxyphenyl)(4-quinolyl)][3-(4-piperidylmethyl)phenyl]amine] | Kd [8]: 0.9 µM
3 | 0.801 to 5 | Clc1cccc(-c2cc(Nc3cccc(CC4CCN(Cc5ccccc5)CC4)c3)c3ccccc3n2)c1 [Compound I17, [2-(3-chlorophenyl)(4-quinolyl)](3-{[1-benzyl(4-piperidyl)]methyl}phenyl)amine] | –
4 | 0.801 to 5 | COC(=O)CNC(=O)c1ccc(-c2cc(NCCCN3CCCCC3)c3ccccc3n2)cc1 [Compound I69] | –
5 | 0.801 to 5 | COc1ccc(-c2cc(NCCc3ccncc3)c3ccccc3n2)cc1 [Compound I201, [2-(4-methoxyphenyl)(4-quinolyl)](2-(4-pyridyl)ethyl)amine] | –
6 | 0.801 to 5 | COc1ccc(-c2cc(Nc3ccncc3)c3ccccc3n2)cc1 [Compound G65, [2-(4-methoxyphenyl)(4-quinolyl)]-4-pyridylamine] | –
7 | 0.801 to 5 | COc1ccc(-c2cc(Nc3cccc(CN4CCS(=O)(=O)CC4)c3)c3ccccc3n2)cc1 [Compound G62, 4-[(3-{[2-(4-methoxyphenyl)-4-quinolyl]amino}phenyl)methyl]-1,4-thiazaperhydroine-1,1-dione] | –
8 | > 5 | Cc1noc(C)c1-c1cc(NCCCN2CCCCC2)c2ccccc2n1 [Compound I112] | –
9 | 0.801 to 5 | Clc1ccc(-c2cc(NCCCN3CCCCC3)c3ccccc3n2)s1 [Compound I142] | –
10 | 0.801 to 5 | {2-[5-chloro-2-(cyclopropylmethoxy)(3-pyridyl)](4-quinolyl)}(3-piperidylpropyl)amine [Compound I95] | –
11 | 0.801 to 5 | Cc1nc(C)c(-c2cc(NCCCN3CCCCC3)c3ccccc3n2)s1 [Compound G20] | –
12 | 0.2 to 0.8 | Cn1ccc2cc(-c3cc(NCCCN4CCCCC4)c4ccccc4n3)ccc21 [Compound I109] | –
13 | 0.801 to 5 | Fc1cc(Cl)ccc1-c1cc(NCCCc2cccnc2)c2ccccc2n1 [Compound I204, [2-(4-chloro-2-fluorophenyl)(4-quinolyl)](3-(3-pyridyl)propyl)amine] | –
14 | > 5 | CCN(CC)S(=O)(=O)c1cccc(-c2cc(NCCCN3CCCCC3)c3ccccc3n2)c1 [Compound I244] | –
15 | > 5 | CN(C)CCc1ccc(Nc2cc(-c3ccc(C(N)=O)cc3)nc3ccccc23)cc1 [Compound I217, 4-[4-({4-[2-(dimethylamino)ethyl]phenyl}amino)-2-quinolyl]benzamide] | –
16 | 0.801 to 5 | COc1ccc(-c2cc(Nc3ccn(C)n3)c3ccccc3n2)cc1 [Compound G46] | –
17 | 0.801 to 5 | Fc1cccc(F)c1-c1cc(NCCCN2CCCCC2)c2ccccc2n1 [Compound I130] | –
18 | 0.801 to 5 | COc1ccc(-c2cc(Nc3cccc(CC#N)c3)c3ccccc3n2)cc1 [Compound I36, 2-(3-{[2-(4-methoxyphenyl)-4-quinolyl]amino}phenyl)ethanenitrile] | –
19 | 0.801 to 5 | COc1ccc(-c2cc(NCc3ccccc3)c3ccccc3n2)cc1 [Compound G75, [2-(4-methoxyphenyl)(4-quinolyl)]benzylamine] | –
20 | 0.801 to 5 | CSc1ccc(-c2cc(NCCCN3CCCCC3)c3ccccc3n2)cc1 [Compound I169] | –
21 | > 5 | COc1ccc(-c2cc(NCCCN3CCCCC3)c3cc(C(F)(F)F)ccc3n2)cc1 [Compound G28, [2-(4-Methoxy-phenyl)-6-trifluoromethyl-quinolin-4-yl]-(3-piperidin-1-yl-propyl)-amine] | –
22 | 0.801 to 5 | Cc1cc(Cl)ccc1-c1cc(NCCCN2CCCCC2)c2ccccc2n1 [Compound I134] | –
23 | 0.2 to 0.8 | COc1ccc(-c2cc(Nc3cccc(CC4CCN(C)CC4)c3)c3ccccc3n2)cc1 [Compound I31, [2-(4-methoxyphenyl)(4-quinolyl)]{3-[(1-methyl(4-piperidyl))methyl]phenyl}amine] | –
24 | > 5 | c1ccc2[nH]c(-c3cc(NCCCN4CCCCC4)c4ccccc4n3)cc2c1 [Compound I124] | –
25 | 0.801 to 5 | NC(=O)c1ccc(-c2cc(Nc3cccc(CC4CCNCC4)c3)c3ccccc3n2)cc1 [Compound I3, 4-(4-{[3-(4-piperidylmethyl)phenyl]amino}-2-quinolyl)benzamide] | –
26 | 0.801 to 5 | Fc1cccc(-c2cc(NCCCN3CCCCC3)c3ccccc3n2)c1 [Compound G7, [2-(3-Fluoro-phenyl)-quinolin-4-yl]-(3-piperidin-1-yl-propyl)-amine] | –
27 | 0.801 to 5 | COc1ccc(-c2cc(Nc3ccncn3)c3ccccc3n2)cc1 [Compound G70, [2-(4-methoxyphenyl)(4-quinolyl)]pyrimidin-4-ylamine] | –
28 | 0.2 to 0.8 | c1cc2c3c(cc(-c4cc(NCCCN5CCCCC5)c5ccccc5n4)cc3c1)CC2 [Compound I256] | –

From patent US10626094B2 (La Jolla Institute of Allergy & Immunology, priority 2014, dated 2020)
